Results from ChEMBL document CHEMBL1130969, “Potent 3-spiropiperidine growth hormone secretagogues” (Bioorg Med Chem Lett, 1998).

Assays:
[1] = target: Growth hormone secretagogue receptor type 1 (Rattus norvegicus, UniProt O08725); assay: In vitro growth hormone release was determined in rat pituitary cell assay; format: functional, cell-based, Pituitary gland cell
Rattus norvegicus = species: Rattus norvegicus; assay: In vitro growth hormone release was determined in rat pituitary cell assay; NA means not active; format: functional; conditions: pituitary gland cell

Growth hormone secretagogue receptor type 1, sequence (O08725 whole entry): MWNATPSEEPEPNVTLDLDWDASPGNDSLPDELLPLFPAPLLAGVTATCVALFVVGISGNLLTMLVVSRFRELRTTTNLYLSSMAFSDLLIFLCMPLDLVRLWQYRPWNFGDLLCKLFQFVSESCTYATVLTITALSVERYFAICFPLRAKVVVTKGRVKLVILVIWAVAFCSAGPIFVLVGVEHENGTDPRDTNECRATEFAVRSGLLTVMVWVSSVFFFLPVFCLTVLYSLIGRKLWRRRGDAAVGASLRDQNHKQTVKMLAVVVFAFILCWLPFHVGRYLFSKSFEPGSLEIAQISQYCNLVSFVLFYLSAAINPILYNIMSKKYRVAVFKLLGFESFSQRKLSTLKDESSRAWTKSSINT

| SMILES | EC50 [1] [nM] | EC50 (Rattus norvegicus) |
| --- | --- | --- |
| CC(C)(N)C(=O)N[C@H](Cc1c[nH]c2ccccc12)C(=O)N1CCCC2(Cc3ccccc3C2=O)C1 (stereo partly drawn) | 20 |  |
| CC(C)(N)C(=O)N[C@H](Cc1c[nH]c2ccccc12)C(=O)N1CCCC2(CC(O)c3ccccc3O2)C1 (stereo partly drawn) | 1.2 |  |
| CC(C)(N)C(=O)N[C@H](Cc1c[nH]c2ccccc12)C(=O)N1CCCC2(CC(=O)c3ccccc3O2)C1 (stereo partly drawn) | 1.8 |  |
| CC(C)(N)C(=O)N[C@H](Cc1c[nH]c2ccccc12)C(=O)N1CCC2(CCCc3ccccc32)CC1 | 66 |  |
| CC(C)(N)C(=O)N[C@H](Cc1c[nH]c2ccccc12)C(=O)N1CCCC2(Cc3ccccc3C2O)C1 (stereo partly drawn) |  | Not Active |
| CC(C)(N)C(=O)N[C@H](Cc1c[nH]c2ccccc12)C(=O)N1CCC[C@]2(CC(=O)c3ccccc3O2)C1 | 57 |  |
| CC(C)(N)C(=O)N[C@H](Cc1c[nH]c2ccccc12)C(=O)N1CCC[C@@]2(CC(=O)c3ccccc3O2)C1 | 1.2 |  |
| CC(C)(N)C(=O)N[C@H](Cc1c[nH]c2ccccc12)C(=O)N1CCCC2(Cc3ccccc3C2)C1 | 60 |  |

Continued, in another order:

| EC50 [1] [nM] | SMILES | EC50 (Rattus norvegicus) |
| --- | --- | --- |
| 42 | CC(C)(N)C(=O)N[C@H](Cc1c[nH]c2ccccc12)C(=O)N1CCC2(CC1)Cc1ccccc1C2=O |  |
| 19 | CC(C)(N)C(=O)N[C@H](Cc1c[nH]c2ccccc12)C(=O)N1CCC2(CC1)Cc1ccccc1C2O (stereo partly drawn) |  |
| 25 | CC(C)(N)C(=O)N[C@H](Cc1c[nH]c2ccccc12)C(=O)N1CCC2(CCc3ccccc3O2)CC1 |  |
| 37 | CC(C)(N)C(=O)N[C@H](Cc1c[nH]c2ccccc12)C(=O)N1CCC2(CC1)CC(=O)c1ccccc1O2 |  |
| 37 | CC(C)(N)C(=O)N[C@H](Cc1c[nH]c2ccccc12)C(=O)N1CCC2(CC1)Cc1ccccc1C2 |  |
| 630 | CC(C)(N)C(=O)N[C@H](Cc1c[nH]c2ccccc12)C(=O)N1CCCC2(CCc3ccccc32)C1 (stereo partly drawn) |  |
| 2.9 | CC(C)(N)C(=O)N[C@H](Cc1c[nH]c2ccccc12)C(=O)N1CCCC2(CCc3ccccc3O2)C1 (stereo partly drawn) |  |
| 16 | CC(C)(N)C(=O)N[C@H](Cc1c[nH]c2ccccc12)C(=O)N1CCC2(CC1)CC(O)c1ccccc1O2 (stereo partly drawn) |  |
| 60 | CC(C)(N)CC(=O)N[C@@H]1CCc2ccccc2N(Cc2ccc(-c3ccccc3-c3nnn[nH]3)cc2)C1=O |  |
| 14 | CC(C)(N)C(=O)N[C@H](Cc1c[nH]c2ccccc12)C(=O)N1CCC2(CCc3ccccc32)CC1 [L-162752] |  |
